Experimental data: patent US6737383B1, “Herbicidal oxadiazolidines” (priority 1999, dated 2004)

Columns and labels:
sugar beet = assay: Test B pre/postemergence sugar beet; format: in vivo, Beta vulgaris
Method in brief: (§1)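 Test chemicals in a non-phytotoxic solvent mixture with surfactant were sprayed preemergence onto planted seeds and postemergence onto plants 2 to 18 cm tall (1- to 4-leaf stage). After twelve to sixteen days in a greenhouse, injury was visually rated against untreated controls from 0 (no effect) to 10 (complete control).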

wheat = assay: Test B pre/postemergence wheat; format: in vivo, Triticum aestivum
Method in brief: as §1

rice = assay: Test B flood test rice; format: in vivo, Oryza sativa
Method in brief: (§2)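 Read-out is a visual response score from 0 (no effect) to 10 (complete control), assigned by comparison with untreated controls. Treatment was applied at the 2-leaf stage, and plants stayed in the greenhouse for twelve to sixteen days before scoring.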

wild oat = assay: Test B pre/postemergence wild oat; format: in vivo, Avena fatua
Method in brief: as §1

blackgrass = assay: Test B pre/postemergence blackgrass; format: in vivo, Alopecurus myosuroides
Method in brief: as §1

velvetleaf = assay: Test B pre/postemergence velvetleaf; format: in vivo, Abutilon theophrasti
Method in brief: as §1

giant foxtail = assay: Test B pre/postemergence giant foxtail; format: in vivo, Setaria faberii
Method in brief: as §1

smallflower flatsedge = assay: Test B flood test smallflower flatsedge; format: in vivo, Cyperus difformis
Method in brief: as §2

soybean = assay: Test B pre/postemergence soybean; format: in vivo, Glycine max
Method in brief: as §1

morningglory = assay: Test B pre/postemergence morningglory; format: in vivo, Ipomoea hederacea
Method in brief: as §1

bedstraw = assay: Test B pre/postemergence bedstraw; format: in vivo, Galium aparine; details: Preemergence
Method in brief: as §1

corn = assay: Test B pre/postemergence corn; format: in vivo, Zea mays
Method in brief: as §1

pigweed = assay: Test B pre/postemergence pigweed; format: in vivo, Amaranthus retroflexus
Method in brief: as §1

rape = assay: Test B pre/postemergence rape; format: in vivo, Brassica napus
Method in brief: as §1

cocklebur = assay: Test B pre/postemergence cocklebur; format: in vivo, Xanthium strumarium
Method in brief: as §1

surinam grass = assay: Test B pre/postemergence surinam grass; format: in vivo, Brachiaria decumbens
Method in brief: as §1

[1] = Postemergence, Rate 31 g/ha, visual rating, scale 0 to 10 (0 no effect, 10 complete control)
[2] = Postemergence, Rate 125 g/ha, scale 0 to 10, 0 is no effect, 10 is complete control
[3] = Postemergence, Rate 250 g/ha, scale 0 to 10
[4] = Preemergence, Rate 62 g/ha, scale of 0 to 10 where 0 is no effect and 10 is complete control
[5] = Preemergence, Rate 125 g/ha, scale 0 to 10, 0 is no effect, 10 is complete control
[6] = Preemergence, Rate 250 g/ha, scale 0 to 10, 0 is no effect, 10 is complete control
[7] = Rate 62 g/ha, Postemergence, scale 0 to 10, 0 no effect, 10 complete control
[8] = Rate 31 g/ha, Pre-emergence section (flood test species), scale 0 to 10
[9] = Rate 62 g/ha, flood test species, Pre-emergence, visual evaluation after twelve to sixteen days
[10] = Rate 125 g/ha, under heading Pre-emergence, flood test species, visual evaluation after twelve to sixteen days
[11] = Rate 250 g/ha, Pre-emergence (flood test species), scale 0 to 10, 0 is no effect, 10 is complete control
[12] = Preemergence, Rate 31 g/ha, visual rating, scale 0 to 10 (0 no effect, 10 complete control)

CC(C)N(C(=O)n1oc(=O)n(CC[N+](=O)[O-])c1=O)c1ccc(Cl)cc1 [Compound 483]
0: Sugarbeets plant response rating (sugar beet; [1]) | Sugarbeets plant response rating (sugar beet; [2]) | Sugarbeets plant response rating (sugar beet; [3]) | Plant response rating, Sugarbeets (sugar beet; [4]) | Sugarbeets plant response rating (sugar beet; [5]) | Sugarbeets plant response rating (sugar beet; [6]) | Sugarbeets plant response rating (sugar beet; [7]) | Wheat plant response rating (wheat; [1]) | Wheat plant response rating (wheat; [2]) | Wheat plant response rating (wheat; [3]) | Plant response rating, Wheat (wheat; [4]) | Wheat plant response rating (wheat; [5]) | Wheat plant response rating (wheat; [6]) | Wheat plant response rating (wheat; [7]) | Rice plant response rating (rice; [8]) | Plant response rating, Rice (0 to 10 scale, 0 is no effect, 10 is complete control) (rice; [9]) | Rice plant response rating (0 to 10 scale, 0 is no effect, 10 is complete control) (rice; [10]) | Rice plant response rating (rice; [11]) | Wild oats plant response rating (wild oat; [1]) | Wild oats plant response rating (wild oat; [2]) | Wild oats plant response rating (wild oat; [3]) | Plant response rating, Wild oats (wild oat; [4]) | Wild oats plant response rating (wild oat; [5]) | Wild oats plant response rating (wild oat; [6]) | Wild oats plant response rating (wild oat; [7]) | Blackgrass plant response rating (blackgrass; [1]) | Blackgrass plant response rating (blackgrass; [2]) | Blackgrass plant response rating (blackgrass; [3]) | Blackgrass plant response rating (blackgrass; [12]) | Plant response rating, Blackgrass (blackgrass; [4]) | Blackgrass plant response rating (blackgrass; [5]) | Blackgrass plant response rating (blackgrass; [6]) | Blackgrass plant response rating (blackgrass; [7]) | Velvetleaf plant response rating (velvetleaf; [1]) | Velvetleaf plant response rating (velvetleaf; [2]) | Velvetleaf plant response rating (velvetleaf; [3]) | Plant response rating, Velvetleaf (velvetleaf; [4]) | Velvetleaf plant response rating (velvetleaf; [5]) | Velvetleaf plant response rating (velvetleaf; [6]) | Velvetleaf plant response rating (velvetleaf; [7]) | Giant foxtail plant response rating (giant foxtail; [1]) | Giant foxtail plant response rating (giant foxtail; [2]) | Giant foxtail plant response rating (giant foxtail; [3]) | Giant foxtail plant response rating (giant foxtail; [12]) | Plant response rating, Giant foxtail (giant foxtail; [4]) | Giant foxtail plant response rating (giant foxtail; [5]) | Giant foxtail plant response rating (giant foxtail; [6]) | Giant foxtail plant response rating (giant foxtail; [7]) | S. Flatsedge plant response rating (smallflower flatsedge; [8]) | Plant response rating, S. Flatsedge (0 to 10 scale, 0 is no effect, 10 is complete control) (smallflower flatsedge; [9]) | S. Flatsedge plant response rating (0 to 10 scale, 0 is no effect, 10 is complete control) (smallflower flatsedge; [10]) | S. Flatsedge plant response rating (smallflower flatsedge; [11]) | Soybean plant response rating (soybean; [1]) | Soybean plant response rating (soybean; [2]) | Soybean plant response rating (soybean; [3]) | Plant response rating, Soybean (soybean; [4]) | Soybean plant response rating (soybean; [5]) | Soybean plant response rating (soybean; [6]) | Soybean plant response rating (soybean; [7]) | Morningglory plant response rating (morningglory; [1]) | Morningglory plant response rating (morningglory; [2]) | Morningglory plant response rating (morningglory; [3]) | Plant response rating, Morningglory (morningglory; [4]) | Morningglory plant response rating (morningglory; [5]) | Morningglory plant response rating (morningglory; [6]) | Morningglory plant response rating (morningglory; [7]) | Bedstraw plant response rating (bedstraw; Rate 31 g/ha, visual rating, scale 0 to 10 (0 no effect, 10 complete control)) | Plant response rating, Bedstraw (bedstraw; Rate 62 g/ha, scale of 0 to 10 where 0 is no effect and 10 is complete control) | Bedstraw plant response rating (bedstraw; Rate 125 g/ha, scale 0 to 10, 0 is no effect, 10 is complete control) | Bedstraw plant response rating (bedstraw; Rate 250 g/ha, scale 0 to 10, 0 is no effect, 10 is complete control) | Corn plant response rating (corn; [1]) | Corn plant response rating (corn; [2]) | Corn plant response rating (corn; [3]) | Corn plant response rating (corn; [12]) | Plant response rating, Corn (corn; [4]) | Corn plant response rating (corn; [5]) | Corn plant response rating (corn; [6]) | Corn plant response rating (corn; [7]) | Redroot pigweed plant response rating (pigweed; [1]) | Redroot pigweed plant response rating (pigweed; [2]) | Redroot pigweed plant response rating (pigweed; [3]) | Plant response rating, Redroot pigweed (pigweed; [4]) | Redroot pigweed plant response rating (pigweed; [5]) | Redroot pigweed plant response rating (pigweed; [6]) | Redroot pigweed plant response rating (pigweed; [7]) | Rape plant response rating (rape; [1]) | Rape plant response rating (rape; [2]) | Rape plant response rating (rape; [3]) | Plant response rating, Rape (rape; [4]) | Rape plant response rating (rape; [5]) | Rape plant response rating (rape; [6]) | Rape plant response rating (rape; [7]) | Cocklebur plant response rating (cocklebur; [1]) | Cocklebur plant response rating (cocklebur; [2]) | Cocklebur plant response rating (cocklebur; [3]) | Cocklebur plant response rating (cocklebur; [12]) | Plant response rating, Cocklebur (cocklebur; [4]) | Cocklebur plant response rating (cocklebur; [5]) | Cocklebur plant response rating (cocklebur; [6]) | Cocklebur plant response rating (cocklebur; [7]) | B. signalgrass plant response rating (surinam grass; [1]) | B. signalgrass plant response rating (surinam grass; [2]) | B. signalgrass plant response rating (surinam grass; Postemergence, Rate 250 g/ha, scale 0 to 10, 0 no effect, 10 complete control) | B. signalgrass plant response rating (surinam grass; [12]) | Plant response rating, B. signalgrass (surinam grass; [4]) | B. signalgrass plant response rating (surinam grass; [5]) | B. signalgrass plant response rating (surinam grass; [6]) | B. signalgrass plant response rating (surinam grass; [7])
